Assay results taken from PubChem BioAssay (NCI).
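Briefly, cells in 96-well plates were exposed to five compound concentrations for 48 h, and endpoints were estimated by linear interpolation. GI50 = concentration required for 50% inhibition of growth. TGI: total growth inhibition.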 Where a SMILES comes first, the peptide text is derived from it. The star is where a group is joined. Cbz = O=C(OCc1ccccc1)*; Bn = c1ccc(C*)cc1

Assays:
Experiment in all cases: growth of human tumour cells (NCI), 48 h
T-47D breast = tested on: T-47D breast
HL-60(TB) leukemia = tested on: HL-60(TB) leukemia
MDA-MB-231 breast = tested on: MDA-MB-231 breast
SR leukemia = tested on: SR leukemia
MDA-N = tested on: MDA-N
DU-145 prostate = tested on: DU-145 prostate
NCI/ADR-RES ovarian = tested on: NCI/ADR-RES ovarian
MCF7 breast = tested on: MCF7 breast
SNB-78 CNS = tested on: SNB-78 CNS
KM20L2 colon = tested on: KM20L2 colon
DLD-1 colon = tested on: DLD-1 colon
786-0 renal = tested on: 786-0 renal
BT-549 breast = tested on: BT-549 breast

SMILES | TGI (T-47D breast) | TGI (HL-60(TB) leukemia) | TGI (MDA-MB-231 breast) | TGI (SR leukemia) | TGI (MDA-N) | TGI (DU-145 prostate) | TGI (NCI/ADR-RES ovarian) | TGI (MCF7 breast) | TGI (SNB-78 CNS) | TGI (KM20L2 colon) | TGI (DLD-1 colon) | TGI (786-0 renal) | TGI (BT-549 breast) | other results
COc1ccc(-c2oc3cc(OC(C)=O)cc(OC(C)=O)c3c(=O)c2OC)cc1 | 57.9 µM | 33.9 µM | 63.7 µM | 51.5 µM | 28.3 µM | 45.2 µM | 36 µM | 48.4 µM | – | – | – | – | – | –
CC(=O)OCC1OC(NC(=O)N(CCCl)N=O)C(OC(C)=O)C(OC(C)=O)C1OC(C)=O (stereo not given) | – | > 100 µM | – | – | – | – | > 100 µM | > 100 µM | > 100 µM | > 100 µM | > 100 µM | – | – | –
C=CCOCCC(CC=C)C(=O)CC(=O)OC (stereo not given) | – | > 100 µM | – | > 100 µM | – | – | – | – | – | > 100 µM | > 100 µM | – | – | –
CCn1c(=O)c(C(=O)O)c(Cl)c2cc3c(cc21)OCO3 | – | > 100 µM | – | – | – | – | > 100 µM | > 100 µM | > 100 µM | > 100 µM | > 100 µM | – | – | –
NC(=O)c1ccc([N+](=O)[O-])cc1 | – | – | – | – | – | – | – | – | > 100 µM | > 100 µM | > 100 µM | > 100 µM | – | –
C1CSCCSCSCCS1 | > 100 µM | – | > 100 µM | – | > 100 µM | > 100 µM | > 100 µM | > 100 µM | – | – | – | – | > 100 µM | –
O=C1c2cccc(O)c2C(=O)c2c(O)cccc21 | – | – | – | > 100 µM | – | – | – | – | > 100 µM | > 100 µM | > 100 µM | > 100 µM | – | –
N=C(N)c1ccc(-c2ccc(-c3ccc4ccccc4c3)s2)s1 | 4.52 µM | 5.11 µM | 3.73 µM | – | – | 3.44 µM | – | – | – | – | – | – | 46.8 µM | GI50 (T-47D breast): 1.95 µM; GI50 (HL-60(TB) leukemia): 1.81 µM; GI50 (MDA-MB-231 breast): 1.85 µM; GI50 (DU-145 prostate): 1.83 µM; GI50 (BT-549 breast): 17.6 µM
COc1ccc(N2C(=O)/C(=C\c3ccccc3)SC2c2cc(OC)c(OC)c(OC)c2)cc1 (stereo not given) | > 100 µM | – | > 100 µM | > 100 µM | 44.8 µM | – | > 100 µM | > 100 µM | – | – | – | – | > 100 µM | –
CS(=O)(=O)c1ccc2nc(-c3ccc(O)cc3)sc2c1 | – | 63.9 µM | 42.5 µM | 39.8 µM | 34.4 µM | 29.6 µM | 36.2 µM | 35.5 µM | – | – | – | – | 30.5 µM | –
C=CCNC1=C2C[C@@H](C)C[C@H](OC)[C@H](O)[C@@H](C)/C=C(\C)[C@H](OC(N)=O)[C@@H](OC)/C=C\C=C(/C)C(=O)NC(=CC1=O)C2=O | 29.5 µM | 1.06 µM | 23.6 µM | 10.3 µM | 15 µM | 7.33 µM | 57.3 µM | 16 µM | – | – | – | 58.3 µM | 31.1 µM | –
COc1ccc2c(c1)C(OC)C1c3c(cc4c(c3-2)OCO4)CCN1C (stereo not given) | > 63.7 µM | > 20.6 µM | 9.59 µM | > 42.3 µM | 12 µM | > 52 µM | 7.45 µM | 8.13 µM | – | – | – | > 40.9 µM | 8.48 µM | –
O=C(Nc1ccc(Cl)cc1)c1cc([N+](=O)[O-])ccc1O | – | 8.62 µM | – | 31.6 µM | – | – | – | – | – | > 50.9 µM | > 100 µM | > 46.8 µM | – | –
CC1C[C@]2(C[C@@H](C)C(=O)O2)OC2CC3(C)C4CCC5C(C)(C)OC(=O)CC[C@@]56C[C@@]46CC[C@]3(C)C12 (stereo not given in full) | – | > 100 µM | – | > 100 µM | – | – | – | – | > 100 µM | – | > 100 µM | – | – | –
C[n+]1c2ccccc2c(CNCC(=O)O)c2ccccc21 | – | – | – | – | – | – | – | – | 44.3 µM | 2.44 µM | 2 µM | 2.58 µM | – | –
c1ccc(-c2n(Cc3ccc4ccccc4c3)c3ccccc3[n+]2Cc2ccc3ccccc3c2)cc1 | – | – | 1.3 µM | 1.64 µM | – | 1.64 µM | 5.93 µM | – | – | – | – | – | – | GI50 (MDA-MB-231 breast): 0.289 µM; GI50 (SR leukemia): 0.343 µM; GI50 (DU-145 prostate): 0.441 µM; GI50 (NCI/ADR-RES ovarian): 2.21 µM
COC(=O)C(Cc1ccc(O)cc1)NC(=O)C(COCc1ccccc1)NC(=O)OCc1ccccc1 (stereo not given) (Cbz-Ser(Bn)-Tyr-OMe; configuration not given here) | 39.5 µM | > 100 µM | 33.1 µM | > 100 µM | 31.4 µM | 31.8 µM | 38.8 µM | 36.6 µM | – | – | – | – | > 100 µM | –
